In BindingDB's records for patent US10807952 (Achillion Pharmaceuticals, Inc., 2020):

Target: Complement factor D (Homo sapiens, UniProt P00746)
Assay: Not found
From the text: Not found

Chain of Complement factor D (P00746 whole entry): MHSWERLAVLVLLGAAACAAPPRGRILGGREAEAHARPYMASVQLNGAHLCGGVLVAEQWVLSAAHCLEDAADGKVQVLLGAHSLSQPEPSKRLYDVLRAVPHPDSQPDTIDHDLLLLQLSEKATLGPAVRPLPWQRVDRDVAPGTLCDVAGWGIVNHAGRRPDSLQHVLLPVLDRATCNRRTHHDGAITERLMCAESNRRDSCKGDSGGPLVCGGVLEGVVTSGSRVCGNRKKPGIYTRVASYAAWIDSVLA

SMILES | IC50
CC(=O)c1nn(CC(=O)N2C[C@H](F)C[C@H]2C(=O)Nc2cccc(-c3ccc4[nH]cnc4c3Cl)c2F)c2cnccc12 [US10807952, Cmp No. 1] | < 1000 nM
NC(=O)c1nn(CC(=O)N2C[C@H](F)C[C@H]2C(=O)Nc2cccc(-c3ccc4[nH]cnc4c3Cl)c2F)c2ccc(Br)cc12 [US10807952, Cmp No. 4] | < 1000 nM
NC(=O)c1nn(CC(=O)N2C[C@H](F)C[C@H]2C(=O)Nc2cccc(-c3nc4cccc(Cl)c4[nH]3)c2F)c2ccccc12 [US10807952, Cmp No. 27] | < 1000 nM
NC(=O)c1nn(CC(=O)N2C[C@H](F)C[C@H]2C(=O)Nc2cccc(Br)n2)c2cc(C(F)(F)F)sc12 [US10807952, Cmp No. 34] | < 1000 nM
NC(=O)c1cccc(CC(=O)N2C[C@H](F)C[C@H]2C(=O)Nc2cccc(-c3ccccc3Cl)c2F)n1 [US10807952, Cmp No. 38] | < 1000 nM
